Results reported in patent US10835542B2, “9-aminomethyl minocycline compounds and use thereof in treating community-acquired bacterial pneumonia (CABP)” (Paratek Pharmaceuticals, Inc., priority 2016, dated 2020).
Read-outs that look alike come from different tables or passages of the source.

What was measured:
Format in all cases: in vivo, human
cSSSI = assay: Phase 2 and Phase 3 studies in complicated skin and skin structure infection (cSSSI)
[1] = Safety and tolerability in the food effect study
Protocol: Safety and tolerability was assessed by: Adverse events (AEs); vital sign measurements at multiple time-points within 24 hours post-dose in each treatment period; and clinical laboratory tests 24 hours post-dose in each treatment period.

baseline pathogen = details: PTE, microITT
[2] = system: Haemophilus parainfluenzae; assay: Clinical success at PTE by baseline pathogen, microITT; details: N1 = 18 (Compound 1), 17 (Moxifloxacin)
Chlamydophila pneumoniae = assay: as above; details: N1 = 28 (Compound 1), 28 (Moxifloxacin)

**Q.** Which results are given for `CN(C)c1cc(CNCC(C)(C)C)c(O)c2c1C[C@H]1C[C@H]3[C@H](N(C)C)C(O)=C(C(N)=O)C(=O)[C@@]3(O)C(O)=C1C2=O` [Compound 1, 9-[(2,2-dimethyl-propylamino)-methyl]-minocycline]?
**A.** tolerability in cSSSI studies (cSSSI; Phase 2 (219 subjects) and terminated Phase 3 (143 subjects)): well-tolerated; efficacy in cSSSI studies (cSSSI; versus comparator linezolid): efficacy similar to an established comparator (linezolid); tolerability of a single oral dose ([1]; 300 mg oral): well tolerated; subjects with treatment emergent AEs ([1]; 32 subjects, nausea, somnolence, mild, unrelated to study drug): two; median change from baseline in heart rate ([1]; all other treatment groups, all measured time points): ≤ 3 bpm; serious AE (SAE) ([1]; single 300 mg oral dose): no subject experienced a serious AE; treatment-related adverse events or clinically relevant changes in laboratory values or vital signs ([1]; single 300 mg oral dose): No treatment-related adverse events; Clinical Success n (%) (baseline pathogen; baseline pathogen Acinetobacter baumanii complex, N1 = 0 (Compound 1), 1 (Moxifloxacin)): 0 n (%); Clinical Success n (%) (baseline pathogen; baseline pathogen Acinetobacter baumanii, N1 = 0 (Compound 1), 1 (Moxifloxacin)): 0 n (%); Clinical Success n (%) (baseline pathogen; baseline pathogen Acinetobacter junii, N1 = 1 (Compound 1), 0 (Moxifloxacin)): 1 (100.0) n (%); Clinical Success n (%) (baseline pathogen; baseline pathogen Acinetobacter lwoffii, N1 = 1 (Compound 1), 0 (Moxifloxacin)): 1 (100.0) n (%); Clinical Success n (%) (baseline pathogen; baseline pathogen Citrobacter braakii, N1 = 0 (Compound 1), 1 (Moxifloxacin)): 0 n (%); Clinical Success n (%) (baseline pathogen; baseline pathogen Citrobacter freundii, N1 = 0 (Compound 1), 1 (Moxifloxacin)): 0 n (%); Clinical Success n (%) (baseline pathogen; baseline pathogen Enterobacter cloacae, N1 = 2 (Compound 1), 4 (Moxifloxacin)): 2 (100.0) n (%); Clinical Success n (%) (baseline pathogen; baseline pathogen Haemophilus haemolyticus, N1 = 1 (Compound 1), 0 (Moxifloxacin)): 1 (100.0) n (%); Clinical Success n (%) (baseline pathogen; baseline pathogen Haemophilus parahaemolyticus, N1 = 2 (Compound 1), 2 (Moxifloxacin)): 2 (100.0) n (%); Clinical Success n (%) (baseline pathogen; baseline pathogen Klebsiella oxytoca, N1 = 1 (Compound 1), 4 (Moxifloxacin)): 0 n (%); Clinical Success n (%) (baseline pathogen; baseline pathogen Morganella morganii, N1 = 1 (Compound 1), 0 (Moxifloxacin)): 1 (100.0) n (%); Clinical Success n (%) (baseline pathogen; baseline pathogen Neisseria meningitidis, N1 = 1 (Compound 1), 1 (Moxifloxacin)): 1 (100.0) n (%); Clinical Success n (%) (baseline pathogen; baseline pathogen Prevotella oris, N1 = 0 (Compound 1), 1 (Moxifloxacin)): 0 n (%); Clinical Success n (%) (baseline pathogen; baseline pathogen Proteus mirabilis, N1 = 2 (Compound 1), 2 (Moxifloxacin)): 1 (50.0) n (%); Clinical Success n (%) (baseline pathogen; baseline pathogen Pseudomonas aeruginosa, N1 = 3 (Compound 1), 5 (Moxifloxacin)): 2 (66.7) n (%); Clinical Success n (%) (baseline pathogen; baseline pathogen Pseudomonas putida, N1 = 0 (Compound 1), 1 (Moxifloxacin)): 0 n (%); Clinical Success n (%) (baseline pathogen; baseline pathogen Serratia marcescens, N1 = 1 (Compound 1), 0 (Moxifloxacin)): 1 (100.0) n (%); Clinical Success n (%) (baseline pathogen; baseline pathogen Stenotrophomonas maltophilia, N1 = 0 (Compound 1), 2 (Moxifloxacin)): 0 n (%); Clinical Success n (%) (baseline pathogen; baseline pathogen Streptococcus agalactiae, N1 = 2 (Compound 1), 3 (Moxifloxacin)): 2 (100.0) n (%); Clinical Success n (%) (baseline pathogen; baseline pathogen Streptococcus anginosus, N1 = 0 (Compound 1), 1 (Moxifloxacin)): 0 n (%); Clinical Success n (%) (baseline pathogen; baseline pathogen Streptococcus constellatus, N1 = 1 (Compound 1), 1 (Moxifloxacin)): 1 (100.0) n (%); Clinical Success n (%) (baseline pathogen; baseline pathogen Streptococcus gordonii, N1 = 0 (Compound 1), 1 (Moxifloxacin)): 0 n (%); Clinical Success n (%) (baseline pathogen; baseline pathogen Streptococcus mitis group, N1 = 1 (Compound 1), 2 (Moxifloxacin)): 1 (100.0) n (%); Clinical Success n (%) (baseline pathogen; baseline pathogen Streptococcus mitis, N1 = 3 (Compound 1), 5 (Moxifloxacin)): 3 (100.0) n (%); Clinical Success n (%) (baseline pathogen; baseline pathogen Streptococcus oralis, N1 = 1 (Compound 1), 0 (Moxifloxacin)): 1 (100.0) n (%); Clinical Success n (%) (baseline pathogen; baseline pathogen Streptococcus parasanguinis, N1 = 0 (Compound 1), 2 (Moxifloxacin)): 0 n (%); Clinical Success n (%) (baseline pathogen; baseline pathogen Streptococcus salivarius, N1 = 1 (Compound 1), 3 (Moxifloxacin)): 1 (100.0) n (%); Clinical Success n (%) (baseline pathogen; baseline pathogen Streptococcus sanguinis, N1 = 0 (Compound 1), 2 (Moxifloxacin)): 0 n (%); Clinical Success n (%) [2]: 15 (83.3) n (%); Clinical Success n (%) (Chlamydophila pneumoniae): 25 (89.3) n (%)
